According to PMC3109722 (Journal of medicinal chemistry, 2011):
“Also recorded” adds a separate entry of the source. Blank lines part the entries; values can stand above or below the compound they belong to.

Tests used:
[1] = biological target: T1, PHF13 (Homo sapiens, UniProt Q86YI8); test: AlphaScreen histone peptide competition, PHF13; type: binding; settings: average of at least two independent trials ± SD
T1 sequence (Q86YI8 232-280 limits assumed): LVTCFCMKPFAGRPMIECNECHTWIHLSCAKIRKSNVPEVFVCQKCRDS

[2] = biological target: T2, L3MBTL3 (Homo sapiens, UniProt Q96JM7); test: ITC binding to L3MBTL3; settings: data not shown
T2 sequence (Q96JM7 225-555 limits assumed): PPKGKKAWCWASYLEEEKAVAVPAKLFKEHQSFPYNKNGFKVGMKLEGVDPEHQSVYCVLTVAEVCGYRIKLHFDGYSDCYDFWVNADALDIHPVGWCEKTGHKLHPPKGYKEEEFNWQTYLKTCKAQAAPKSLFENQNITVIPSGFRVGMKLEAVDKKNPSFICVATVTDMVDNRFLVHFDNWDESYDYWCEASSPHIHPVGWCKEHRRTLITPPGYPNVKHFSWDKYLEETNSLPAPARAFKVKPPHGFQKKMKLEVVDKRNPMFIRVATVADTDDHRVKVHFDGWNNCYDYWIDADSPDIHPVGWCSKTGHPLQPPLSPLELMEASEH

[3] = biological target: T2, L3MBTL3; test: AlphaScreen histone peptide competition, L3MBTL3; type: binding; settings: average of at least two independent trials ± SD
[4] = biological target: T3, L3MBTL1 (Homo sapiens, UniProt Q9Y468); test: AlphaScreen histone peptide competition, L3MBTL1; settings: sulfonamide series; footnote a of Table 2: no binding by AlphaScreen
T3 sequence (Q9Y468 200-522 isoform Q9Y468-1 limits assumed): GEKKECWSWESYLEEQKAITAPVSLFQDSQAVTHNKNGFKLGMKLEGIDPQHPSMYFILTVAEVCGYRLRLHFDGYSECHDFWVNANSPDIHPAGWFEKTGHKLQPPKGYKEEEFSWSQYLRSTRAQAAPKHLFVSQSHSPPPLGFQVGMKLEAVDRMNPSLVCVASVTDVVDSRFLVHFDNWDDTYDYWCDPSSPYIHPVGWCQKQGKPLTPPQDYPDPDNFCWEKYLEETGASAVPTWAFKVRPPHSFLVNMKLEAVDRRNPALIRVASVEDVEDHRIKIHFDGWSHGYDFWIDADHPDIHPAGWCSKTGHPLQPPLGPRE

[5] = biological target: T3, L3MBTL1; test: ITC binding to wt L3MBTL1; settings: single experiments, standard deviations from least square curve fitting

PHF13 IC50 [1]: weak binding
Binding to L3MBTL3 by ITC [2]: Binding was confirmed
L3MBTL3 IC50 [3]: weak binding
SMILES: O=C(NCCCCCN1CCCC1)c1cncc(Br)c1 [Compound 7]

SMILES: O=S(=O)(NCCOCCN1CCCC1)c1cccc(Br)c1 [Compound 8]
Binding by AlphaScreen [4]: did not show any activity; also recorded: No Binding ^a

SMILES: O=S(=O)(NCCCCCN1CCOCC1)c1cccc(Br)c1 [Compound 9]
Binding by AlphaScreen [4]: did not show any activity; also recorded: No Binding ^a

3MBTL1 Kd [5]: No Binding Interaction
SMILES: C[C@H]1CCN(CCCCCNS(=O)(=O)c2cccc(Br)c2)C1 [Compound 12]
